Measured values published in the CheMixHub ionic liquid set.
± gives the uncertainty stated by the source.

Test: xn = mol fraction of the nth substance listed

CCCCCCCCCCCC[N+](C)(C)C.[Br-] + O
viscosity (293.15 K, 100 kPa, x1 = 5.406e-05): 0.982 ± 0.027 mPa·s | viscosity (293.15 K, 100 kPa, x1 = 0.0001081): 0.984 ± 0.027 mPa·s | viscosity (293.15 K, 100 kPa, x1 = 0.0001622): 0.985 ± 0.027 mPa·s | viscosity (293.15 K, 100 kPa, x1 = 0.0002162): 0.987 ± 0.027 mPa·s | viscosity (293.15 K, 100 kPa, x1 = 0.0002702): 0.989 ± 0.027 mPa·s | viscosity (293.15 K, 100 kPa, x1 = 0.0003242): 0.991 ± 0.027 mPa·s | viscosity (293.15 K, 100 kPa, x1 = 0.0003783): 0.993 ± 0.027 mPa·s | viscosity (293.15 K, 100 kPa, x1 = 0.0004323): 0.995 ± 0.027 mPa·s | viscosity (293.15 K, 100 kPa, x1 = 0.0004863): 0.999 ± 0.027 mPa·s | viscosity (293.15 K, 100 kPa, x1 = 0.0005403): 1 ± 0.027 mPa·s | viscosity (293.15 K, 101 kPa, x1 = 5.406e-05): 0.985 ± 0.06 mPa·s | viscosity (293.15 K, 101 kPa, x1 = 0.0001081): 0.986 ± 0.06 mPa·s | viscosity (293.15 K, 101 kPa, x1 = 0.0001622): 0.988 ± 0.06 mPa·s | viscosity (293.15 K, 101 kPa, x1 = 0.0002162): 0.99 ± 0.06 mPa·s | viscosity (293.15 K, 101 kPa, x1 = 0.0002702): 0.992 ± 0.06 mPa·s | viscosity (293.15 K, 101 kPa, x1 = 0.0003242): 0.994 ± 0.06 mPa·s | viscosity (293.15 K, 101 kPa, x1 = 0.0003783): 0.996 ± 0.06 mPa·s | viscosity (293.15 K, 101 kPa, x1 = 0.0004323): 0.998 ± 0.06 mPa·s | viscosity (293.15 K, 101 kPa, x1 = 0.0004863): 1.001 ± 0.061 mPa·s | viscosity (293.15 K, 101 kPa, x1 = 0.0005403): 1.004 ± 0.061 mPa·s | electrical conductivity (298 K, 101 kPa, x1 = 0.0001567): 0.079 ± 0.006 S/m | electrical conductivity (298 K, 101 kPa, x1 = 0.0001676): 0.084 ± 0.007 S/m | electrical conductivity (298 K, 101 kPa, x1 = 0.000182): 0.09 ± 0.007 S/m | electrical conductivity (298 K, 101 kPa, x1 = 0.0001874): 0.093 ± 0.007 S/m | electrical conductivity (298 K, 101 kPa, x1 = 0.0001946): 0.096 ± 0.008 S/m | electrical conductivity (298 K, 101 kPa, x1 = 0.0002054): 0.099 ± 0.008 S/m | electrical conductivity (298 K, 101 kPa, x1 = 0.0002144): 0.105 ± 0.008 S/m | electrical conductivity (298 K, 101 kPa, x1 = 0.0002252): 0.111 ± 0.009 S/m | electrical conductivity (298 K, 101 kPa, x1 = 0.000236): 0.115 ± 0.009 S/m | viscosity (298.15 K, 100 kPa, x1 = 5.406e-05): 0.853 ± 0.027 mPa·s | viscosity (298.15 K, 100 kPa, x1 = 0.0001081): 0.855 ± 0.026 mPa·s | viscosity (298.15 K, 100 kPa, x1 = 0.0001622): 0.855 ± 0.026 mPa·s | viscosity (298.15 K, 100 kPa, x1 = 0.0002162): 0.857 ± 0.026 mPa·s | viscosity (298.15 K, 100 kPa, x1 = 0.0002702): 0.86 ± 0.026 mPa·s | viscosity (298.15 K, 100 kPa, x1 = 0.0003242): 0.86 ± 0.026 mPa·s | viscosity (298.15 K, 100 kPa, x1 = 0.0003783): 0.861 ± 0.026 mPa·s | viscosity (298.15 K, 100 kPa, x1 = 0.0004323): 0.863 ± 0.026 mPa·s | viscosity (298.15 K, 100 kPa, x1 = 0.0004863): 0.864 ± 0.026 mPa·s | viscosity (298.15 K, 100 kPa, x1 = 0.0005403): 0.866 ± 0.027 mPa·s | electrical conductivity (298.15 K, 101 kPa, x1 = 4.307e-05): 0.02398 ± 5e-05 S/m | viscosity (298.15 K, 101 kPa, x1 = 5.406e-05): 0.853 ± 0.052 mPa·s | electrical conductivity (298.15 K, 101 kPa, x1 = 5.568e-05): 0.0306 ± 6e-05 S/m | electrical conductivity (298.15 K, 101 kPa, x1 = 6.865e-05): 0.03743 ± 8e-05 S/m | electrical conductivity (298.15 K, 101 kPa, x1 = 8.144e-05): 0.04413 ± 9e-05 S/m | electrical conductivity (298.15 K, 101 kPa, x1 = 9.46e-05): 0.0508 ± 0.0001 S/m | electrical conductivity (298.15 K, 101 kPa, x1 = 0.0001068): 0.05714 ± 0.00011 S/m | viscosity (298.15 K, 101 kPa, x1 = 0.0001081): 0.854 ± 0.052 mPa·s | electrical conductivity (298.15 K, 101 kPa, x1 = 0.0001198): 0.06364 ± 0.00013 S/m | electrical conductivity (298.15 K, 101 kPa, x1 = 0.0001322): 0.06995 ± 0.00014 S/m | electrical conductivity (298.15 K, 101 kPa, x1 = 0.0001456): 0.07656 ± 0.00015 S/m | electrical conductivity (298.15 K, 101 kPa, x1 = 0.0001584): 0.0829 ± 0.00017 S/m | viscosity (298.15 K, 101 kPa, x1 = 0.0001622): 0.856 ± 0.052 mPa·s | electrical conductivity (298.15 K, 101 kPa, x1 = 0.0001704): 0.08876 ± 0.00018 S/m | electrical conductivity (298.15 K, 101 kPa, x1 = 0.0001857): 0.09628 ± 0.00019 S/m | electrical conductivity (298.15 K, 101 kPa, x1 = 0.0002009): 0.1036 ± 0.00021 S/m | electrical conductivity (298.15 K, 101 kPa, x1 = 0.0002126): 0.1093 ± 0.00022 S/m | viscosity (298.15 K, 101 kPa, x1 = 0.0002162): 0.858 ± 0.052 mPa·s | electrical conductivity (298.15 K, 101 kPa, x1 = 0.0002243): 0.1151 ± 0.00023 S/m | electrical conductivity (298.15 K, 101 kPa, x1 = 0.0002466): 0.1259 ± 0.00025 S/m | electrical conductivity (298.15 K, 101 kPa, x1 = 0.0002495): 0.1271 ± 0.00025 S/m | electrical conductivity (298.15 K, 101 kPa, x1 = 0.0002564): 0.1305 ± 0.00026 S/m | viscosity (298.15 K, 101 kPa, x1 = 0.0002702): 0.859 ± 0.052 mPa·s | electrical conductivity (298.15 K, 101 kPa, x1 = 0.0002992): 0.1437 ± 0.00029 S/m | electrical conductivity (298.15 K, 101 kPa, x1 = 0.000323): 0.1474 ± 0.00029 S/m | viscosity (298.15 K, 101 kPa, x1 = 0.0003242): 0.861 ± 0.052 mPa·s | electrical conductivity (298.15 K, 101 kPa, x1 = 0.0003333): 0.1488 ± 0.0003 S/m | viscosity (298.15 K, 101 kPa, x1 = 0.0003783): 0.862 ± 0.052 mPa·s | viscosity (298.15 K, 101 kPa, x1 = 0.0004323): 0.864 ± 0.052 mPa·s | viscosity (298.15 K, 101 kPa, x1 = 0.0004863): 0.861 ± 0.052 mPa·s | viscosity (298.15 K, 101 kPa, x1 = 0.0005403): 0.867 ± 0.052 mPa·s | viscosity (303.15 K, 100 kPa, x1 = 5.406e-05): 0.772 ± 0.026 mPa·s | viscosity (303.15 K, 100 kPa, x1 = 0.0001081): 0.773 ± 0.026 mPa·s
